Data from article PMC10714400, “Antimicrobial Peptide–Peptoid Hybrids with and without Membrane Disruption” (ACS Infectious Diseases, 2023).
Read-outs that look alike come from different tables or passages of the source.

How the values were obtained:
[1] = tested on: PA14 4.13 (phoQ)
How it was run: (§1)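 MICs were determined by broth microdilution in MH medium, with approximately 5 × 10^5 CFU added per well and plates held at 37 °C for about 18 h without shaking.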

[2] = tested on: ZEM-1A (clinical MDR P. aeruginosa isolate)
How it was run: as §1

[3] = tested on: PA14 2P4 (pmrB)
How it was run: as §1

[4] = tested on: PA14 4.18 (pmrB)
How it was run: as §1

[5] = tested on: P. aeruginosa PAO1
How it was run: as §1

[6] = tested on: E. coli W3110
How it was run: as §1

[7] = tested on: K. pneumoniae NCTC418
How it was run: (§2)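 MTT added (20–30 min, room temperature); MIC read by eye as lowest concentration inhibiting visible growth (yellow). Polymyxin B positive control from 16 μg/mL.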

[8] = tested on: K. pneumoniae OXA-48
How it was run: as §1

[9] = tested on: A. baumannii ATCC19606
How it was run: as §2

[10] = tested on: S. aureus COL (MRSA)
How it was run: as §1

[11] = tested on: ZEM9A (clinical MDR P. aeruginosa isolate)
How it was run: as §1

[12] = tested on: E. cloacae
How it was run: as §1

[13] = tested on: S. aureus Newman
How it was run: as §1

[14] = tested on: HEK293 cells; experiment: Cell viability assay by Alamar blue; settings: read-out: Toxicity on HEK293 cells; CSV
Procedure: The data are represented as the mean value ± SD, n = 3. […] (c) Vesicle leakage assay for a selection of compounds. Lipid vesicles made of EYPG or EYPC were suspended in a buffer (10 mM TRIS, 107 mM NaCl, pH 7.4). After 45 s, the indicated compound was added to reach the desired concentration. After 240 s, 30 μL of 1.2% TritonX-100 was added for full fluorescein release. […] See Supporting Information for the full curves, all of the data, and procedures.
HEK293 cells were cultured and maintained in DMEM high glucose (Dulbecco’s modified Eagle medium, Sigma Aldrich) medium supplemented with 10% FBS (Sigma Aldrich) and 1% penicillin/streptomycin. A549 cells were cultured and maintained in RPMI-1640 medium (Sigma Aldrich), supplemented with 10% FBS (Sigma Aldrich) and 1% penicillin/streptomycin. The cells were handled and subcultured according to the manufacturer instructions. Cells were incubated in a humidified incubator at 37 °C in the presence of 5% CO2.
Assays on HEK293, A549 cells were performed as described earlier.[74] […]

[15] = diluted MH ([…] MH, pH 8.5) per Table 1 footnote b, 16–20 h at 37 °C
[16] = full MH, pH 7.4, 16–20 h at 37 °C

H-KKLLKLLKLLL-NH2 [ln65, reference compound]
MIC P. aeruginosa PA14 4.13, […] MH at pH 8.5 ([1]; CSV, […] MH at pH 8.5): 2 ug/mL | MIC P. aeruginosa PA14 4.13, full MH at pH 7.4 ([1]; CSV, full MH at pH 7.4): 4 ug/mL | MIC PA14 4.13 (phoQ) ([1]; MH pH 7.4, 16–20 h at 37 °C): 4 µg/mL | MIC P. aeruginosa PA14 4.13 ([1]; Table S3, […] MH at pH 8.5): 2 µg/mL | MIC P. aeruginosa ZEM-1A, […] MH at pH 8.5 ([2]; CSV, […] MH at pH 8.5): 4 ug/mL | MIC P. aeruginosa ZEM-1A, full MH at pH 7.4 ([2]; CSV, full MH at pH 7.4): 2 ug/mL | MIC ZEM-1A ([2]; MH pH 7.4, 16–20 h at 37 °C): 2 µg/mL | MIC P. aeruginosa ZEM-1A ([2]; Table S3, […] MH at pH 8.5): 4 µg/mL | MIC P. aeruginosa PA14 2P4, […] MH at pH 8.5 ([3]; CSV, […] MH at pH 8.5): 3 ug/mL | MIC P. aeruginosa PA14 2P4, full MH at pH 7.4 ([3]; CSV, full MH at pH 7.4): 32 ug/mL | MIC PA14 2P4 (pmrB) ([3]; MH pH 7.4, 16–20 h at 37 °C): 32 µg/mL | MIC P. aeruginosa PA14 2P4 ([3]; Table S3, […] MH at pH 8.5): 2 to 4 µg/mL | MIC P. aeruginosa PA14 4.18, […] MH at pH 8.5 ([4]; CSV, […] MH at pH 8.5): 3 ug/mL | MIC P. aeruginosa PA14 4.18, full MH at pH 7.4 ([4]; CSV, full MH at pH 7.4): 32 ug/mL | MIC PA14 4.18 (pmrB) ([4]; MH pH 7.4, 16–20 h at 37 °C): 32 µg/mL | MIC P. aeruginosa PA14 4.18 ([4]; Table S3, […] MH at pH 8.5): 2 to 4 µg/mL | MIC P. aeruginosa PAO1, […] MH at pH 7.4 ([5]; CSV, […] MH at pH 7.4): 4 ug/mL | MIC P. aeruginosa PAO1, […] MH at pH 8.5 ([5]; CSV, […] MH at pH 8.5): 4 ug/mL | MIC P. aeruginosa PAO1, full MH at pH 7.4 ([5]; CSV, full MH at pH 7.4): 3 ug/mL | MIC P. aeruginosa PAO1, full MH at pH 8.5 ([5]; CSV, full MH at pH 8.5): 16 ug/mL | MIC P. aeruginosa PAO1 […] 7.4 ([5]; Table S2, […] MH, pH 7.4): 4 µg/mL | MIC P. aeruginosa PAO1 […] 8.5 ([5]; Table S2, […] MH, pH 8.5): 4 µg/mL | MIC P. aeruginosa PAO1 Full MH 7.4 ([5]; Table S2, full MH, pH 7.4): 2 to 4 µg/mL | MIC P. aeruginosa PAO1 Full MH 8.5 ([5]; Table S2, full MH, pH 8.5): 16 µg/mL | MIC P. aeruginosa PAO1 […] [5, 15]: 4 µg/mL | MIC P. aeruginosa PAO1 Full [5, 16]: 2 to 4 µg/mL | MIC E. coli W3110, […] MH at pH 7.4 ([6]; CSV, […] MH at pH 7.4): 2 ug/mL | MIC E. coli W3110, […] MH at pH 8.5 ([6]; CSV, […] MH at pH 8.5): 2 ug/mL | MIC E. coli W3110, full MH at pH 7.4 ([6]; CSV, full MH at pH 7.4): 4 ug/mL | MIC E. coli W3110 […] 7.4 ([6]; Table S2, […] MH, pH 7.4): 2 µg/mL | MIC E. coli W3110 […] 8.5 ([6]; Table S2, […] MH, pH 8.5): 2 µg/mL | MIC E. coli W3110 Full MH 7.4 ([6]; Table S2, full MH, pH 7.4): 4 µg/mL | MIC E. coli W3110 Full MH 8.5 ([6]; Table S2, full MH, pH 8.5): 8 µg/mL | MIC K. pneumoniae NCTC418, […] MH at pH 7.4 ([7]; CSV, […] MH at pH 7.4): 3 ug/mL | MIC K. pneumoniae NCTC418, […] MH at pH 8.5 ([7]; CSV, […] MH at pH 8.5): 2 ug/mL | MIC K. pneumoniae NCTC418, full MH at pH 7.4 ([7]; CSV, full MH at pH 7.4): 4 ug/mL | MIC K. pneumoniae NCTC418, full MH at pH 8.5 ([7]; CSV, full MH at pH 8.5): 8 ug/mL | MIC K. pneumoniae NCTC418 […] 7.4 ([7]; Table S2, […] MH, pH 7.4): 2 to 4 µg/mL | MIC K. pneumoniae NCTC418 […] 8.5 ([7]; Table S2, […] MH, pH 8.5): 2 µg/mL | MIC K. pneumoniae NCTC418 Full MH 7.4 ([7]; Table S2, full MH, pH 7.4): 4 µg/mL | MIC K. pneumoniae NCTC418 Full MH 8.5 ([7]; Table S2, full MH, pH 8.5): 8 µg/mL | MIC K. pneumoniae NCTC418 […] [7, 15]: 2 to 4 µg/mL | MIC K. pneumoniae NCTC418 Full [7, 16]: 4 µg/mL | MIC K. pneumoniae OXA-48, […] MH at pH 8.5 ([8]; CSV, […] MH at pH 8.5): 4 ug/mL | MIC K. pneumoniae OXA-48, full MH at pH 7.4 ([8]; CSV, full MH at pH 7.4): 2 ug/mL | MIC K. pneumoniae OXA-48 ([8]; MH pH 7.4, 16–20 h at 37 °C): 2 µg/mL | MIC K. pneumoniae OXA-48 ([8]; Table S3, […] MH at pH 8.5): 4 µg/mL | MIC A. baumannii ATCC19606, […] MH at pH 7.4 ([9]; CSV, […] MH at pH 7.4): 4 ug/mL | MIC A. baumannii ATCC19606, […] MH at pH 8.5 ([9]; CSV, […] MH at pH 8.5): 2 ug/mL | MIC A. baumannii ATCC19606, full MH at pH 7.4 ([9]; CSV, full MH at pH 7.4): 3 ug/mL | MIC A. baumannii ATCC19606, full MH at pH 8.5 ([9]; CSV, full MH at pH 8.5): 8 ug/mL | MIC A. baumannii ATCC19606 […] 7.4 ([9]; Table S2, […] MH, pH 7.4): 4 µg/mL | MIC A. baumannii ATCC19606 […] 8.5 ([9]; Table S2, […] MH, pH 8.5): 2 µg/mL | MIC A. baumannii ATCC19606 Full MH 7.4 ([9]; Table S2, full MH, pH 7.4): 2 to 4 µg/mL | MIC A. baumannii ATCC19606 Full MH 8.5 ([9]; Table S2, full MH, pH 8.5): 8 µg/mL | MIC A. baumannii ATCC19606 […] [9, 15]: 4 µg/mL | MIC A. baumannii ATCC19606 Full [9, 16]: 2 to 4 µg/mL | MIC S. aureus COL (MRSA), […] MH at pH 7.4 ([10]; CSV, […] MH at pH 7.4): 2 ug/mL | MIC S. aureus COL (MRSA), […] MH at pH 8.5 ([10]; CSV, […] MH at pH 8.5): 2 ug/mL | MIC S. aureus COL (MRSA), full MH at pH 7.4 ([10]; CSV, full MH at pH 7.4): 4 ug/mL | MIC S. aureus COL (MRSA), full MH at pH 8.5 ([10]; CSV, full MH at pH 8.5): 8 ug/mL | MIC S. aureus COL (MRSA) […] 7.4 ([10]; Table S2, […] MH, pH 7.4): 2 µg/mL | MIC S. aureus COL (MRSA) […] 8.5 ([10]; Table S2, […] MH, pH 8.5): 2 µg/mL | MIC S. aureus COL (MRSA) Full MH 7.4 ([10]; Table S2, full MH, pH 7.4): 4 µg/mL | MIC S. aureus COL (MRSA) Full MH 8.5 ([10]; Table S2, full MH, pH 8.5): 8 µg/mL | MIC S. aureus COL (MRSA) […] [10, 15]: 2 µg/mL | MIC S. aureus COL (MRSA) Full [10, 16]: 4 µg/mL | MIC P. aeruginosa ZEM9A, […] MH at pH 8.5 ([11]; CSV, […] MH at pH 8.5): 4 ug/mL | MIC P. aeruginosa ZEM9A, full MH at pH 7.4 ([11]; CSV, full MH at pH 7.4): 4 ug/mL | MIC P. aeruginosa ZEM9A ([11]; Table S3, […] MH at pH 8.5): 4 µg/mL | MIC E. cloacae, […] MH at pH 8.5 ([12]; CSV, […] MH at pH 8.5): 4 ug/mL | MIC E. cloacae, full MH at pH 7.4 ([12]; CSV, full MH at pH 7.4): 2 ug/mL | MIC E. cloacae ([12]; MH pH 7.4, 16–20 h at 37 °C): 2 µg/mL | MIC E. cloacae ([12]; Table S3, […] MH at pH 8.5): 4 µg/mL | MIC S. aureus Newman, […] MH at pH 8.5 ([13]; CSV, […] MH at pH 8.5): 2 ug/mL | MIC S. aureus Newman, full MH at pH 7.4 ([13]; CSV, full MH at pH 7.4): 2 ug/mL | MIC S. aureus Newman ([13]; MH pH 7.4, 16–20 h at 37 °C): 2 µg/mL | MIC S. aureus Newman ([13]; Table S3, […] MH at pH 8.5): 2 µg/mL | IC50 [14]: 27 ± 6 µM
